In patent US20240382629A1, “HETEROBIVALENT AND HOMOBIVALENT AGENTS TARGETING FIBROBLAST ACTIVATION PROTEIN ALPHA AND/OR PROSTATE-SPECIFIC MEMBRANE ANTIGEN” (The Johns Hopkins University, priority 2021, published 2024):
Where “and” joins values, the source holds several entries; their conditions need not be identical. Equal values may be shown once.

Columns and labels:
[1] = Biodistribution of [^18F]JHU1221823 with cold FAPI-04 blocker; format: in vivo, mouse; details: for % ID/g Spleen / % ID/g Stomach / % ID/g Tumor: single mouse
[2] = Biodistribution of representative compounds ([^18F]Sri-07-56, [^18F]Sri-07-52, [^18F]JHU1221823, [^18F]FAPI-74), tissue % ID/g with carrier or blocker; format: in vivo, mouse; details: 20 μCi per mouse; for Bladder % ID/g / Blood % ID/g / Brain % ID/g / Fat % ID/g / Femur % ID/g / Heart % ID/g / Kidney % ID/g / Large intestine % ID/g / Liver % ID/g / Lung % ID/g / Muscle % ID/g / Pancreas % ID/g / Salivery gland % ID/g / Small intestine % ID/g / Spleen % ID/g / Stomach % ID/g / Tumor % ID/g: individual mice
Source text: Biodistribution of Representative Compounds

What does the source list for N#C[C@@H]1CCCN1C(=O)CNC(=O)c1ccnc2ccc(OCCCNC(=O)CCOCCOCCOCCOCCNC(=O)[C@H](CCCCNC(=O)c3ccc([18F])nc3)NC(=O)CN3CCN(CC(=O)O)CCN(CC(=O)O)CCN(CC(=O)O)CC3)cc12 [[^18F]JHU1221823]?
% ID/g Spleen ([1]; 30 min): 2.08 % ID/g and 2.12 % ID/g; % ID/g Mean Spleen ([1]; 60 min): 2.35 % ID/g; % ID/g Spleen ([1]; 60 min): 2.25 % ID/g and 2.45 % ID/g; % ID/g Mean Spleen ([1]; + Blocker Cold FAPI-04, 60 min): 0.51 % ID/g; % ID/g Spleen ([1]; + Blocker Cold FAPI-04, 60 min): 0.29 % ID/g and 0.38 % ID/g; % ID/g Mean Stomach ([1]; 30 min): 1.52 % ID/g; % ID/g Stomach ([1]; 30 min): 1.84 % ID/g and 1.21 % ID/g; % ID/g Mean Stomach ([1]; 60 min): 1.68 % ID/g; % ID/g Stomach ([1]; 60 min): 1.68 % ID/g and 1.57 % ID/g; % ID/g Mean Stomach ([1]; + Blocker Cold FAPI-04, 60 min): 0.34 % ID/g; % ID/g Stomach ([1]; + Blocker Cold FAPI-04, 60 min): 0.28 % ID/g and 0.40 % ID/g; % ID/g Mean Tumor ([1]; 30 min): 3.11 % ID/g; % ID/g Tumor ([1]; 30 min): 2.90 % ID/g and 3.32 % ID/g; % ID/g Mean Tumor ([1]; 60 min): 6.20 % ID/g; % ID/g Tumor ([1]; 60 min): 5.22 % ID/g and 7.17 % ID/g; % ID/g Mean Tumor ([1]; + Blocker Cold FAPI-04, 60 min): 1.04 % ID/g; % ID/g Tumor ([1]; + Blocker Cold FAPI-04, 60 min): 0.89 % ID/g and 1.19 % ID/g; Bladder % ID/g Mean ([2]; 60 min): 4.53 % ID/g; Blood % ID/g Mean ([2]; 60 min): 9.54 % ID/g; Brain % ID/g Mean ([2]; 60 min): 0.22 % ID/g; Fat % ID/g Mean ([2]; 60 min): 1.07 % ID/g; Femur % ID/g Mean ([2]; 60 min): 2.83 % ID/g; Heart % ID/g Mean ([2]; 60 min): 4.65 % ID/g; Kidney % ID/g Mean ([2]; 60 min): 2.73 % ID/g; Large intestine % ID/g Mean ([2]; 60 min): 1.49 % ID/g; Liver % ID/g Mean ([2]; 60 min): 2.99 % ID/g; Lung % ID/g Mean ([2]; 60 min): 5.72 % ID/g; Muscle % ID/g Mean ([2]; 60 min): 1.78 % ID/g; Pancreas % ID/g Mean ([2]; 60 min): 2.14 % ID/g; Salivary gland % ID/g Mean ([2]; 60 min): 6.93 % ID/g; Small intestine % ID/g Mean ([2]; 60 min): 3.02 % ID/g; Spleen % ID/g Mean ([2]; 60 min): 2.15 % ID/g; Stomach % ID/g Mean ([2]; 60 min): 1.14 % ID/g; Tumor % ID/g Mean ([2]; 60 min): 5.71 % ID/g; Bladder % ID/g ([2]; 60 min): 6.41 % ID/g and 2.64 % ID/g; Blood % ID/g ([2]; 60 min): 9.28 % ID/g and 9.80 % ID/g; Brain % ID/g ([2]; 60 min): 0.23 % ID/g and 0.22 % ID/g; Fat % ID/g ([2]; 60 min): 0.47 % ID/g and 1.68 % ID/g; Femur % ID/g ([2]; 60 min): 2.55 % ID/g and 3.11 % ID/g; Heart % ID/g ([2]; 60 min): 4.31 % ID/g and 4.98 % ID/g; Kidney % ID/g ([2]; 60 min): 2.70 % ID/g and 2.77 % ID/g; Large intestine % ID/g ([2]; 60 min): 1.29 % ID/g and 1.69 % ID/g; Liver % ID/g ([2]; 60 min): 2.68 % ID/g and 3.29 % ID/g; Lung % ID/g ([2]; 60 min): 5.53 % ID/g and 5.91 % ID/g; Muscle % ID/g ([2]; 60 min): 1.79 % ID/g and 1.78 % ID/g; Pancreas % ID/g ([2]; 60 min): 1.62 % ID/g and 2.66 % ID/g; Salivery gland % ID/g ([2]; 60 min): 7.44 % ID/g and 6.43 % ID/g; Small intestine % ID/g ([2]; 60 min): 2.59 % ID/g and 3.46 % ID/g; Spleen % ID/g ([2]; 60 min): 1.86 % ID/g and 2.43 % ID/g; Stomach % ID/g ([2]; 60 min): 0.84 % ID/g and 1.45 % ID/g; Tumor % ID/g ([2]; 60 min): 4.35 % ID/g and 7.05 % ID/g; Bladder % ID/g Mean ([2]; 120 min): 1.92 % ID/g; Blood % ID/g Mean ([2]; 120 min): 6.28 % ID/g; Brain % ID/g Mean ([2]; 120 min): 0.18 % ID/g; Fat % ID/g Mean ([2]; 120 min): 1.45 % ID/g; Femur % ID/g Mean ([2]; 120 min): 1.61 % ID/g; Heart % ID/g Mean ([2]; 120 min): 3.49 % ID/g; Kidney % ID/g Mean ([2]; 120 min): 1.93 % ID/g; Large intestine % ID/g Mean ([2]; 120 min): 1.38 % ID/g; Liver % ID/g Mean ([2]; 120 min): 2.18 % ID/g; Lung % ID/g Mean ([2]; 120 min): 3.65 % ID/g; Muscle % ID/g Mean ([2]; 120 min): 1.16 % ID/g; Pancreas % ID/g Mean ([2]; 120 min): 4.67 % ID/g; Salivary gland % ID/g Mean ([2]; 120 min): 8.11 % ID/g; Small intestine % ID/g Mean ([2]; 120 min): 2.04 % ID/g; Spleen % ID/g Mean ([2]; 120 min): 1.58 % ID/g; Stomach % ID/g Mean ([2]; 120 min): 1.24 % ID/g; Tumor % ID/g Mean ([2]; 120 min): 2.91 % ID/g; Bladder % ID/g ([2]; 120 min): 2.63 % ID/g and 1.21 % ID/g; Blood % ID/g ([2]; 120 min): 5.77 % ID/g and 6.78 % ID/g; Brain % ID/g ([2]; 120 min): 0.19 % ID/g and 0.17 % ID/g; Fat % ID/g ([2]; 120 min): 0.97 % ID/g and 1.93 % ID/g; Femur % ID/g ([2]; 120 min): 1.71 % ID/g and 1.91 % ID/g; Heart % ID/g ([2]; 120 min): 3.18 % ID/g and 3.79 % ID/g; Kidney % ID/g ([2]; 120 min): 1.61 % ID/g and 2.24 % ID/g; Large intestine % ID/g ([2]; 120 min): 1.40 % ID/g and 1.36 % ID/g; Liver % ID/g ([2]; 120 min): 1.94 % ID/g and 2.42 % ID/g; Lung % ID/g ([2]; 120 min): 3.13 % ID/g and 4.16 % ID/g; Muscle % ID/g ([2]; 120 min): 1.18 % ID/g and 1.15 % ID/g; Pancreas % ID/g ([2]; 120 min): 4.03 % ID/g and 5.32 % ID/g; Salivery gland % ID/g ([2]; 120 min): 5.17 % ID/g and 11.05 % ID/g; Small intestine % ID/g ([2]; 120 min): 1.88 % ID/g and 2.21 % ID/g; Spleen % ID/g ([2]; 120 min): 1.49 % ID/g and 1.67 % ID/g; Stomach % ID/g ([2]; 120 min): 1.11 % ID/g and 1.37 % ID/g; Tumor % ID/g ([2]; 120 min): 2.88 % ID/g and 2.94 % ID/g
